Values quoted from earlier work as cited in patent US12303531B2, “Molecular complex assembly particles comprising bis-R1,R2-dithiocarbamate-metal complex and a ligand, method of preparation and use thereof” (priority 2018, dated 2025).

For `CCN(CC)C(=S)[S-].CCN(CC)C(=S)[S-].[Cu+2]` [bis(diethyldithiocarbamate)copper(II)], the “solubility constant in water” value is given as “in the range of nanograms per litre”.
